# Results as given in ChEMBL document CHEMBL1155377, “SAR of PXR transactivation in benzimidazole-based IGF-1R kinase inhibitors” (Bioorg Med Chem Lett, 2010).
# What was measured:
# [1] = (§1) AUC in mouse plasma at 20 mg/kg, po; format: ADME, organism-based; parameters: dose 20 mg/kg, route oral; settings: plasma
# Mus musculus = experiment: as §1; format: ADME, organism-based; parameters: dose 20 mg/kg, route oral; settings: in vivo
SMILES,AUC [1],AUC (Mus musculus)
Cc1cc(N2CCOCC2)cc2[nH]c(-c3c(NCCc4ncn(C)c4Cl)cc[nH]c3=O)nc12,,90 µM·h
Cc1cc(N2CCOCC2)cc2[nH]c(-c3c(NCCn4cc(Cl)cn4)cc[nH]c3=O)nc12,,51 µM·h
Cc1cc(N2CCOCC2)cc2[nH]c(-c3c(NC[C@@H](O)c4cccc(Cl)c4)cc[nH]c3=O)nc12,,8.2 µM·h
COC(=O)N1CCN(C2CCN(c3cc(C)c4nc(-c5c(NC[C@@H](O)c6cccc(Cl)c6)cc[nH]c5=O)[nH]c4c3)CC2)CC1,11 µM·h,

# Other lines, results leading:
AUC [1],AUC (Mus musculus),SMILES
52 µM·h,,COC(=O)N1CCN(C2CCN(c3cc(C)c4nc(-c5c(NCCn6cc(Cl)cn6)cc[nH]c5=O)[nH]c4c3)CC2)CC1
48 µM·h,,COC(=O)N1CCN(C2CCN(c3cc(C)c4nc(-c5c(NCCc6ncn(C)c6Cl)cc[nH]c5=O)[nH]c4c3)CC2)CC1
